Laboratory results from ChEMBL document CHEMBL1201862, “PubChem BioAssay data set” (2004).
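In this assay, cells in 96-well plates receive the compound at five concentrations for 48 hours. Endpoints are linearly interpolated between the surrounding concentrations. GI50 is the concentration that inhibits growth by half.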 Calls of active or inactive are those of the source. Rule as the data show it: active = GI50 up to about 1.1 µM and inactive = higher.

Experiments:
Experiment in all cases: DTP human tumour cell line panel, 48 h
[1] = test system: NCI-H226
[2] = test system: SNB-78
[3] = test system: KM12
[4] = test system: OVCAR-8
[5] = test system: SK-MEL-5
[6] = test system: RXF 393
[7] = test system: NCI-H522
[8] = test system: SF-268
[9] = test system: OVCAR-3
[10] = test system: OVCAR-5
[11] = test system: A498
[12] = test system: KM-20L2
[13] = test system: NCI-H460
[14] = test system: OVCAR-4
[15] = test system: SNB-19
[16] = test system: XF498
[17] = test system: LXFL 529
[18] = test system: HCT-116
[19] = test system: HT-29
[20] = test system: MOLT-4
[21] = test system: U-251
[22] = test system: SK-OV-3
[23] = test system: UO-31
[24] = test system: UACC-257
[25] = test system: CCRF-CEM
[26] = test system: SN12C
[27] = test system: TK-10
[28] = test system: SF-295
[29] = test system: DMS-273
[30] = test system: LOX IMVI
[31] = test system: ACHN
[32] = test system: HCT-15
[33] = test system: M14
[34] = test system: UACC-62
[35] = test system: M19-MEL
[36] = test system: RPMI-8226
[37] = test system: K562
[38] = test system: IGROV-1
[39] = test system: EKVX
[40] = test system: DLD-1
[41] = test system: DMS-114
[42] = test system: HOP-18
[43] = test system: SW-620
[44] = test system: HL-60
[45] = test system: A549
[46] = test system: HOP-92
[47] = test system: SK-MEL-28
[48] = test system: SF-539
[49] = test system: SNB-75
[50] = test system: COLO 205
[51] = test system: CAKI-1
[52] = test system: NCI-H23
[53] = test system: 786-0
[54] = test system: HOP-62
[55] = test system: SR
[56] = test system: Malme-3M
[57] = test system: SK-MEL-2
[58] = test system: HCC 2998
[59] = test system: RXF 631
[60] = test system: MDA-N
[61] = test system: Hs-578T
[62] = test system: T47D
[63] = test system: BT-549
[64] = test system: MDA-MB-435
[65] = test system: PC-3
[66] = test system: MCF7
[67] = test system: NCI/ADR-RES
[68] = test system: MDA-MB-231
[69] = test system: DU-145

Measured: GI50

COC(=O)C1CCC(=O)C(Sc2ccccc2)C1 (stereo not drawn)
inactive: [1] > 100 µM | [2] > 100 µM | [3] > 100 µM | [4] > 100 µM | [5] > 100 µM | [6] > 100 µM | [7] 52.7 µM | [8] 59.8 µM | [9] > 100 µM | [10] > 100 µM | [11] > 100 µM | [12] > 100 µM | [13] > 100 µM | [14] > 100 µM | [15] > 100 µM | [16] > 100 µM | [17] > 100 µM | [18] > 100 µM | [19] > 100 µM | [20] 27.6 µM | [21] > 100 µM | [22] > 100 µM | [23] 21.2 µM | [24] 83.8 µM | [25] 22.5 µM | [26] > 100 µM | [27] > 100 µM | [28] > 100 µM | [29] > 100 µM | [30] > 100 µM | [31] > 100 µM | [33] > 100 µM | [34] 80.7 µM | [35] 62.1 µM | [36] 44.3 µM | [37] 63.1 µM | [38] 51.6 µM | [39] > 100 µM | [40] > 100 µM | [41] 68.1 µM | [42] > 100 µM | [43] > 100 µM | [44] 34 µM | [45] > 100 µM | [46] 50.1 µM | [47] > 100 µM | [48] > 100 µM | [49] 24.4 µM | [50] > 100 µM | [51] > 100 µM | [52] > 100 µM
> 100 µM: [32]

CCCCCCCCCCCCNC(=S)OC
14.6 µM: [32]
inactive: [2] 21.5 µM | [3] 15.4 µM | [4] 15.8 µM | [5] 17.3 µM | [6] 12.8 µM | [7] 13.2 µM | [8] 16.6 µM | [10] 16.3 µM | [11] 16.9 µM | [12] 16.3 µM | [13] 17.3 µM | [14] 19.4 µM | [15] 24.7 µM | [16] 16.6 µM | [17] 14.8 µM | [53] 15.8 µM | [18] 15.4 µM | [19] 16.7 µM | [20] 2.16 µM | [54] 18 µM | [21] 16 µM | [22] 16 µM | [23] 4.13 µM | [24] 16.7 µM | [25] 10.5 µM | [26] 14.3 µM | [27] 19.5 µM | [28] 19.4 µM | [29] 15.4 µM | [30] 15.2 µM | [31] 17.9 µM | [33] 17.3 µM | [34] 16.1 µM | [35] 17.9 µM | [36] 7.98 µM | [37] 17.5 µM | [55] 3.01 µM | [38] 11.5 µM | [39] 20.7 µM | [56] 15.5 µM | [40] 15 µM | [41] 4.63 µM | [42] 17 µM | [43] 16.6 µM | [44] 10.5 µM | [45] 17.5 µM | [46] 7.08 µM | [47] 16.9 µM | [57] 16.8 µM | [48] 17 µM | [58] 18.2 µM | [49] 16.8 µM | [51] 14.8 µM | [52] 17.8 µM

O=C1C2c3[nH]c4ccccc4c3[C@@H]3CCCCC3C2C(=O)N1c1ccccc1 (stereo partly drawn)
25.7 µM: [32]
inactive: [1] 21 µM | [2] 19.3 µM | [3] 19.2 µM | [4] 26.4 µM | [5] 17.9 µM | [6] 16.7 µM | [8] 18.7 µM | [9] 15.4 µM | [10] 16.8 µM | [11] 28.6 µM | [13] 17.8 µM | [14] 20.5 µM | [59] 14.8 µM | [15] 36.1 µM | [17] 17.6 µM | [53] 18.9 µM | [19] 19.7 µM | [20] 19 µM | [21] 14.4 µM | [22] 26.9 µM | [23] 17.3 µM | [25] 26.5 µM | [26] 17.8 µM | [27] 28 µM | [28] 21.1 µM | [29] 17.3 µM | [30] 15.8 µM | [31] 25.4 µM | [33] 15 µM | [34] 16.6 µM | [35] 19.1 µM | [36] 17.5 µM | [37] 20.9 µM | [55] 19.8 µM | [38] 23 µM | [39] 15.3 µM | [56] 20.6 µM | [40] 26.2 µM | [41] 22.1 µM | [43] 19.1 µM | [44] 20.3 µM | [45] 28.8 µM | [47] 18.2 µM | [48] > 10 µM | [58] 19.3 µM | [49] 27.2 µM | [50] 19.1 µM | [52] 19.5 µM

COC(=O)C1c2cc3c(c(O)c2C(O)CC1(C)O)C(=O)c1c(O)cc2c(c1C3=O)OC1OC2(C)C(O)C(N(C)C)C1O (stereo not drawn)
inactive: [2] > 100 µM | [4] 11.7 µM | [60] 1.57 µM | [6] 12.4 µM | [61] 1.43 µM | [9] 12.7 µM | [12] > 100 µM | [62] 1.71 µM | [13] > 100 µM | [63] 4.9 µM | [14] 12.9 µM | [15] 7.06 µM | [16] > 100 µM | [17] > 100 µM | [64] 1.75 µM | [65] 1.2 µM | [20] 6.08 µM | [54] 12.7 µM | [66] 1.35 µM | [67] 1.64 µM | [68] 1.31 µM | [25] 6.37 µM | [28] 12.4 µM | [29] > 100 µM | [35] > 100 µM | [69] 1.7 µM | [36] 10.9 µM | [37] 11.3 µM | [55] 8.49 µM | [40] > 100 µM | [41] > 100 µM | [42] > 100 µM | [44] 12.6 µM | [46] 26.8 µM | [57] > 100 µM | [51] 3.28 µM
11.3 µM: [32]
